We go through seven molecules from patent US9005579B2 (priority 2010, dated 2015).

The test system of test [1] is E. coli O111:B4. The following applies: overnight incubation, inhibitory concentrations; cited from earlier work.
The subject of test [2] is Staphylococci (protein A negative S. aureus strain 8325-4). The test can be described thus: Ampicillin and penicillin MIC (serial 2-fold dilutions, microtiter plate). The format is cell-based, Staphylococcus aureus. Conditions: for highest dilution of antibiotic showing normal growth (sub-MIC used in experiments): 12 h, BHI media; for growth of staphylococci in the presence of sub-MIC of antibiotic: no antibody. On the procedure:
The MIC dose of two cell wall affecting antibiotics, ampicillin and penicillin, was determined for the protein A negative S. aureus strain 8325-4.
Serial 2-fold dilutions of penicillin and ampicillin were prepared in a microtiter plate. Overnight culture of Staphylococci were diluted 1:100 in BHI media and 100 ul was added to each well and the plate incubated for 12 h. Wells without antibiotic served as controls. The highest dilution of antibiotic showing normal growth was used for further experiments. Ampicillin at 0.1 ug/ml and Penicillin at 0.02 ug/ml were used in these experiments.

The test system of test [3] is Protein A negative Staphylococcus aureus derived from strain 8325-4. The test can be described thus: Growth of S. aureus with sub-MIC antibiotic with or without mouse anti-sortase monoclonal antibody (OD600, 12 h). In kind it is cell-based. Conditions: sub-MIC antibiotic + tissue culture medium, no Ab. The source says:
In a separate set of experiments, we assessed the effect of anti-sortase antibodies, in the presence and absence of antibiotic, on the growth of the staphylococci. Monoclonal supernatants were used for these experiments and tissue culture media used as controls. […] Exemplary growth curve results with monoclonal antibody 7C2 at 1:10 dilution are depicted in FIG. 5. The growth results are tabulated in TABLE 3 below based on final OD readings of multiple growth experiments. In each instance, significant growth inhibition is observed with a combination of sub-MIC antibiotics and anti-sortase antibody.
Protein A negative Staphylococcus aureus derived from strain 8325-4 was grown to OD600 0.5 in Brain-Heart Infusion medium at 37° C. (Patel A H et al (1987) Infect Immun 55(12):3103-3110). When applicable, antibiotics were added to the media at sub-MIC doses.
Mouse anti-sortase monoclonals were added to each cell-antibiotic culture at a dilution of either 1:10 or 1:100. OD600 values were measured every 5 mins for 12 hours in a 96-well spectrophotometer.

For test [4] the following is noted: D-Ala-D-Ala termini replaced with D-Ala-D-Lac in VRE; cited from earlier work.
Test [5] has as its target sortase (Staphylococcus aureus, UniProt Q2FV99). The following applies: in vitro and in vivo; react with Cys184; cited from earlier work.

Chain of sortase (Q2FV99 whole entry): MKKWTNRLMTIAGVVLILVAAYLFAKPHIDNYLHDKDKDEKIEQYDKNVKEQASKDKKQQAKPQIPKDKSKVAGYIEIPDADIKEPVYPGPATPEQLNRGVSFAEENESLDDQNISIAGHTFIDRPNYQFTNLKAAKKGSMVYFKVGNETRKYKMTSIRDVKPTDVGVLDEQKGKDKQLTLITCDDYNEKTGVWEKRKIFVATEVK

`CC(C)(O/N=C(\C(=O)N[C@@H]1C(=O)N2C(C(=O)[O-])=C(C[n+]3ccccc3)CS[C@H]12)c1csc(N)n1)C(=O)O` [caftazidime]: the “HA-1A binding after exposure to the antibiotic” value in test [1] is reported as “dose-dependent enhancement of HA-1A binding”.
For the molecule gentamicin, the “HA-1A binding after exposure to the antibiotic” value in test [1] is “not enhanced”.
Turning to `CC1(C)S[C@@H]2[C@H](NC(=O)[C@H](N)c3ccccc3)C(=O)N2[C@H]1C(=O)O` [AMP, Ampicillin], in test [2], the “highest dilution of antibiotic showing normal growth (sub-MIC used in experiments)” value was 0.1 µg/mL and the “growth of staphylococci in the presence of sub-MIC of antibiotic” value is listed as “grow similar to control bacteria without antibiotic”. Moreover, in test [3] (control of Ab 1:10), the “Average OD” value was found to be 0.3308, the “Final OD Reading 1” value was 0.2975 and the “Final OD Reading 2” value stood at 0.3641. Moreover, in test [3] (control of Ab 1:100), the “Average OD” value is 0.4421, the “Final OD Reading 1” value amounted to 0.4216 and the “Final OD Reading 2” value came to 0.4627.
Regarding `CN[C@H](CC(C)C)C(=O)N[C@H]1C(=O)N[C@@H](CC(N)=O)C(=O)N[C@H]2C(=O)N[C@H]3C(=O)N[C@H](C(=O)N[C@H](C(=O)O)c4cc(O)cc(O)c4-c4cc3ccc4O)[C@H](O)c3ccc(c(Cl)c3)Oc3cc2cc(c3O[C@@H]2O[C@H](CO)[C@@H](O)[C@H](O)[C@H]2O[C@H]2C[C@](C)(N)[C@H](O)[C@H](C)O2)Oc2ccc(cc2Cl)[C@H]1O` [vancomycin], the “decrease in vancomycin affinity” value in test [4] is given as 1000 fold.
Consider `C[N+](C)(C)CCSS(C)(=O)=O` [MTSET], for which, in test [5], the sortase inhibition entry was “inhibit sortase in vitro and in vivo”.
For the molecule Penicillin [PCN], in test [2], the “highest dilution of antibiotic showing normal growth (sub-MIC used in experiments)” value was 0.02 µg/mL and the “growth of staphylococci in the presence of sub-MIC of antibiotic” value is on record as “grow similar to control bacteria without antibiotic”. In test [3] (control of Ab 1:10), the “Average OD” value was 0.2446, the “Final OD Reading 1” value amounted to 0.218 and the “Final OD Reading 2” value was determined as 0.2712. In test [3] (control of Ab 1:100), the “Average OD” value is listed as 0.3534, the “Final OD Reading 1” value is reported as 0.3508 and the “Final OD Reading 2” value is reported as 0.3561.
Consider `CS(=O)(=O)SCCS(=O)(=O)O` [(2-sulfonatoethyl)methane-thiosulfonate], for which the sortase inhibition result in test [5] was “inhibit sortase in vitro and in vivo”.
